Results reported in ChEMBL document CHEMBL1201862, “PubChem BioAssay data set” (2004).
Counter-ions that a name gives are not always drawn.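 All cell lines were grown in 96-well plates and treated with compound for 48 hours. GI50 marks 50% less growth.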 Activity calls are given as the source filed them. No stated cut-off is given here; in the data, active = GI50 up to about 1.1 µM and inactive = higher.

Legend:
Assay in all cases: inhibition of tumour cell growth, NCI panel, 48 h
CCRF-CEM = test system: CCRF-CEM
COLO 205 = test system: COLO 205
IGROV-1 = test system: IGROV-1
OVCAR-8 = test system: OVCAR-8
RXF 393 = test system: RXF 393
HOP-92 = test system: HOP-92
SF-539 = test system: SF-539
UO-31 = test system: UO-31
T47D = test system: T47D
NCI-H226 = test system: NCI-H226
TK-10 = test system: TK-10
SF-295 = test system: SF-295
SF-268 = test system: SF-268
SW-620 = test system: SW-620
MCF7 = test system: MCF7
HT-29 = test system: HT-29
SR = test system: SR
KM12 = test system: KM12
A498 = test system: A498
LOX IMVI = test system: LOX IMVI

Row | Compound | GI50 (CCRF-CEM) | GI50 (COLO 205) | GI50 (IGROV-1) | GI50 (OVCAR-8) | GI50 (RXF 393) | GI50 (HOP-92) | GI50 (SF-539) | GI50 (UO-31) | GI50 (T47D) | GI50 (NCI-H226) | GI50 (TK-10) | GI50 (SF-295) | GI50 (SF-268) | GI50 (SW-620) | GI50 (MCF7) | GI50 (HT-29) | GI50 (SR) | GI50 (KM12) | GI50 (A498) | GI50 (LOX IMVI)
1 | CN(C)c1ccc(C(=O)NCCCCCCC(=O)NO)cc1 | 0.238 µM (active) | 0.33 µM (active) | 0.553 µM (active) | 0.153 µM (active) | 0.303 µM (active) | 0.713 µM (active) | 0.589 µM (active) | 0.557 µM (active) | 0.216 µM (active) | 2.75 µM (inactive) | 0.33 µM (active) | 0.326 µM (active) | 0.435 µM (active) | 0.312 µM (active) | 0.237 µM (active) | 0.349 µM (active) | 0.205 µM (active) | 0.684 µM (active) | 0.711 µM (active) | 0.272 µM (active)
2 | O=c1[nH]nc(Nc2ccccc2)c2nnn(Cc3ccccc3)c12 | > 100 µM (inactive) | > 100 µM (inactive) | > 100 µM (inactive) | 19.2 µM (inactive) | > 100 µM (inactive) | 57 µM (inactive) | 54.2 µM (inactive) | > 100 µM (inactive) | > 100 µM (inactive) | 20.3 µM (inactive) | > 100 µM (inactive) | 86.9 µM (inactive) | > 100 µM (inactive) | > 100 µM (inactive) | > 100 µM (inactive) | > 100 µM (inactive) | > 100 µM (inactive) | > 100 µM (inactive) | > 100 µM (inactive) | > 100 µM (inactive)
3 | O=c1c2ccccc2n2nnc3ccc(NCCCNCCNCCCNc4ccc5nnn6c7ccccc7c(=O)c4c56)c1c32 | 0.448 µM (active) | 1.39 µM (inactive) | 0.57 µM (active) | 1.28 µM (inactive) | 1.37 µM (inactive) | > 10.6 µM (inactive) | 0.724 µM (active) | 2.86 µM (inactive) | > 37.4 µM (inactive) | 0.005 µM (active) | 0.832 µM (active) | 5.89 µM (inactive) | 1.79 µM (inactive) | 0.251 µM (active) | 0.447 µM (active) | 0.121 µM (active) | 0.0883 µM (active) | 3.24 µM (inactive) | 16.3 µM (inactive) | 0.566 µM (active)
4 | CN(CC1(CO)CCC1)c1cc(Cl)nc(N)n1 | > 100 µM (inactive) | > 100 µM (inactive) | > 100 µM (inactive) | > 100 µM (inactive) | > 100 µM (inactive) | > 100 µM (inactive) | > 100 µM (inactive) | > 100 µM (inactive) | > 100 µM (inactive) | > 100 µM (inactive) | > 100 µM (inactive) | > 100 µM (inactive) | > 100 µM (inactive) | > 100 µM (inactive) | > 100 µM (inactive) | > 100 µM (inactive) | > 100 µM (inactive) | > 100 µM (inactive) | > 100 µM (inactive) | > 100 µM (inactive)
5 | Cc1ccc(S(=O)(=O)/N=C2/N(C)CCCS2(=O)=O)cc1 | > 100 µM (inactive) | > 100 µM (inactive) | > 100 µM (inactive) | > 100 µM (inactive) | > 100 µM (inactive) | > 100 µM (inactive) | > 100 µM (inactive) | > 100 µM (inactive) | > 100 µM (inactive) | > 100 µM (inactive) | > 100 µM (inactive) | 0.17 µM (active) | > 100 µM (inactive) | > 100 µM (inactive) | > 100 µM (inactive) | > 100 µM (inactive) | > 100 µM (inactive) | > 100 µM (inactive) | > 100 µM (inactive) | > 100 µM (inactive)
6 | CN(C)CCNC(=O)C(C)(C)Oc1ccc(C(=O)c2ccc(Cl)cc2)cc1Cl | 33.4 µM (inactive) | 1.82 µM (inactive) | 11.9 µM (inactive) | 11.8 µM (inactive) | 7.52 µM (inactive) | 6 µM (inactive) | 9.46 µM (inactive) | 9.59 µM (inactive) | 10.4 µM (inactive) | 14.7 µM (inactive) | 11.4 µM (inactive) | 10.6 µM (inactive) | 13.7 µM (inactive) | 5.26 µM (inactive) | 8.34 µM (inactive) | 2.56 µM (inactive) | 6.84 µM (inactive) | 8.93 µM (inactive) | 16.1 µM (inactive) | 7.11 µM (inactive)
7 | C[n+]1c2ccccc2c(CNC(CCC(N)=O)C(=O)O)c2ccccc21 (stereo not given) | 0.366 µM (active) | 0.525 µM (active) | 4.15 µM (inactive) | 3.39 µM (inactive) | 1.99 µM (inactive) | 0.948 µM (active) | 2.34 µM (inactive) | 2.67 µM (inactive) | 0.0221 µM (active) | 8.3 µM (inactive) | 1.53 µM (inactive) | 6.71 µM (inactive) | 1.77 µM (inactive) | 0.506 µM (active) | 1.02 µM (active) | 1.22 µM (inactive) | 1.07 µM (active) | 2.46 µM (inactive) | 0.6 µM (active) | 1.94 µM (inactive)
8 | O=S(=O)(O)c1ccc(-c2c3nc(c(-c4ccc(S(=O)(=O)O)cc4)c4ccc([nH]4)c(-c4ccc(S(=O)(=O)O)cc4)c4nc(c(-c5ccc(S(=O)(=O)O)cc5)c5ccc2[nH]5)C=C4)C=C3)cc1 | 23 µM (inactive) | 42 µM (inactive) | 53.3 µM (inactive) | > 100 µM (inactive) | 26.9 µM (inactive) | 91.2 µM (inactive) | > 100 µM (inactive) | 37.4 µM (inactive) | 33 µM (inactive) | 32.7 µM (inactive) | 21.6 µM (inactive) | 47.4 µM (inactive) | > 100 µM (inactive) | 97.5 µM (inactive) | > 100 µM (inactive) | 49.8 µM (inactive) | 45.3 µM (inactive) | 51.5 µM (inactive) | > 100 µM (inactive) | 37.8 µM (inactive)
9 | OCCCCCNc1nc(O)c2[nH]cnc2n1 | > 100 µM (inactive) | > 100 µM (inactive) | > 100 µM (inactive) | > 100 µM (inactive) | > 10 µM (inactive) | > 100 µM (inactive) | 8.17 µM (inactive) | > 100 µM (inactive) | > 100 µM (inactive) | > 100 µM (inactive) | > 100 µM (inactive) | > 10 µM (inactive) | > 100 µM (inactive) | > 100 µM (inactive) | > 10 µM (inactive) | > 100 µM (inactive) | > 100 µM (inactive) | > 100 µM (inactive) | > 100 µM (inactive) | > 100 µM (inactive)
10 | CC(=O)N(O)CCCCCNC(=O)CCC(=O)N(O)CCCCCNC(=O)CCC(=O)N(O)CCCCCN [DEFEROXAMINE HYDROCHLORIDE] | 4.48 µM (inactive) | 34.7 µM (inactive) | 65.6 µM (inactive) | 38.4 µM (inactive) | 57.4 µM (inactive) | > 100 µM (inactive) | 30.1 µM (inactive) | 24.5 µM (inactive) | > 100 µM (inactive) | 26.9 µM (inactive) | 42 µM (inactive) | 7.38 µM (inactive) | 24.9 µM (inactive) | 29.1 µM (inactive) | 37.9 µM (inactive) | 36.6 µM (inactive) | 8.87 µM (inactive) | 26.7 µM (inactive) | > 80.4 µM (inactive) | 13.5 µM (inactive)
